Active and inactive are the calls of the source.
Key:
HEK293 = test: cells; format: functional, cell-based; conditions: Homo sapiens
[1] = target: T1, Nuclear receptor subfamily 0 group B member 1 (Homo sapiens, UniProt P51843); test: Luminescence-based cell-based high throughput dose response assay for inhibitors of the orphan nuclear receptor subfamily 0, group B, member 1 (DAX1; NR0B1). [Related pubchem assays (depositor defined):AID504766, AID504790]; format: functional
T1 sequence (P51843 whole entry): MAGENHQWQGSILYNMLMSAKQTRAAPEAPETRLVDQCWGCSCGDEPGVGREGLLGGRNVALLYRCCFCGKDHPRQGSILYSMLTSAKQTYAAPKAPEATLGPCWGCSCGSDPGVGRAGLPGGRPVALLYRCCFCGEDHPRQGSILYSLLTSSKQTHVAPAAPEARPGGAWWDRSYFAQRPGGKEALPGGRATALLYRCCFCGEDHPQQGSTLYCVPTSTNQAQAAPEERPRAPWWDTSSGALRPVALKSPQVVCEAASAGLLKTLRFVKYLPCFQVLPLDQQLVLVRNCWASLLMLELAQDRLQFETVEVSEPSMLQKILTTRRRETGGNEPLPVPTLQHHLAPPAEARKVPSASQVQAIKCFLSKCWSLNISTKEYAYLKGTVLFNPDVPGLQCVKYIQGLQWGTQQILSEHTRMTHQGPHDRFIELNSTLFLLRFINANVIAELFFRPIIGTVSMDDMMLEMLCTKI

Beta-galactosidase = Beta-galactosidase (Escherichia coli, UniProt Q8VNN2); test: Dose response counterscreen for EBI2 assay utilizing the enzyme, b-galactosidase.; format: functional
[2] = HEp-2 cell cytotoxicity, dose response, cytotoxicity control for RSV inhibitor project, HTS (AID 2410); format: functional; conditions: human respiratory syncytial virus
[3] = Luminescence Cell-Based Dose Retest to Confirm Inhibitors of Cancer Stem Cells. [Related pubchem assays (depositor defined):AID2717, AID2721]; format: functional; conditions: Homo sapiens
[4] = target: Heat shock protein HSP 90-alpha (Homo sapiens, UniProt P07900); format: functional, organism-based
[5] = inhibitors of intracellular T. cruzi replication, confirmation, NIH3T3 host cells, beta-gal luminescence (AID 2044); format: functional, cell-based;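 further: intracellular parasites grown in NIH/3T3 mouse fibroblasts as host cells; luminescent beta-galactosidase reporter signal from transgenic T. cruzi replicating inside host cells; inhibitors lower the luminescence signal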
[6] = cytotoxicity toward NIH3T3 fibroblasts, dose response, counter-screen, cell-based, ATP luminescence, mouse fibroblasts (AID 2010); format: functional;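 further: cells exposed to compound for about 90 hours before reading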
[7] = miR-122 activators in hepatoma reporter cells, dose response, cell-based, Huh7 psiCHECK-miR122, Renilla luciferase, cherry-picked (AID 651956); format: functional;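 further: huh7 hepatoma cells stably carrying a psiCHECK-2 miR-122 sensor plasmid; renilla luciferase signal reporting endogenous miR-122 activity after 48 h compound exposure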
fMet-Leu-Phe receptor = target: T2, fMet-Leu-Phe receptor (Homo sapiens, UniProt P21462); test: FPR ligands, dose response (AID 519); format: functional
T2 sequence (P21462 whole entry): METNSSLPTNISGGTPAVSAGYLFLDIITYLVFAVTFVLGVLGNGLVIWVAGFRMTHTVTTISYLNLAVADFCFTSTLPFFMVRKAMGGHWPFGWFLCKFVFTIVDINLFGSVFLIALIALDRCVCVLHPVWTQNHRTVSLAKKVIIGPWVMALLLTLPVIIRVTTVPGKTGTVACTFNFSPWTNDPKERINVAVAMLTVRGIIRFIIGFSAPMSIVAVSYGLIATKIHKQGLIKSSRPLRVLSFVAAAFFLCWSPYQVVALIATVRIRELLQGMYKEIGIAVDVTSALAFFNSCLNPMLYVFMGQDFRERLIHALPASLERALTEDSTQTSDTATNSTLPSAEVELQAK

[8] = microbe, parasite or virus in culture; format: functional; conditions: Mycobacterium tuberculosis
[9] = target: T3, Low molecular weight phosphotyrosine protein phosphatase (Homo sapiens, UniProt P24666); format: functional; conditions: read-out: IC50_Mean;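 further: Dose-response confirmation assay measuring inhibition of LMPTP enzyme activity by fluorescence intensity read-out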
T3 sequence (P24666 whole entry): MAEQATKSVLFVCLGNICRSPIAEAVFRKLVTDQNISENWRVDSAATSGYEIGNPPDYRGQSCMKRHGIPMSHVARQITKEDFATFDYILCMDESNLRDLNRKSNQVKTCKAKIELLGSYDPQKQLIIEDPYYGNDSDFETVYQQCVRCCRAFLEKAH

[10] = AlphaScreen signal interference compounds, dose response, artefact control for ARNT-TACC3 interaction inhibitor project, biochemical, luminescence, cherry-pick (AID 651705); format: functional;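 further: AlphaScreen bead proximity signal that flags compounds interfering with the detection technology; potency reflects signal decrease which marks the compound as an assay artifact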
Estrogen receptor = target: T4, Estrogen receptor (Homo sapiens, UniProt P03372);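 further: potency for inhibiting coactivator peptide recruitment to the receptor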
T4 sequence (P03372 whole entry): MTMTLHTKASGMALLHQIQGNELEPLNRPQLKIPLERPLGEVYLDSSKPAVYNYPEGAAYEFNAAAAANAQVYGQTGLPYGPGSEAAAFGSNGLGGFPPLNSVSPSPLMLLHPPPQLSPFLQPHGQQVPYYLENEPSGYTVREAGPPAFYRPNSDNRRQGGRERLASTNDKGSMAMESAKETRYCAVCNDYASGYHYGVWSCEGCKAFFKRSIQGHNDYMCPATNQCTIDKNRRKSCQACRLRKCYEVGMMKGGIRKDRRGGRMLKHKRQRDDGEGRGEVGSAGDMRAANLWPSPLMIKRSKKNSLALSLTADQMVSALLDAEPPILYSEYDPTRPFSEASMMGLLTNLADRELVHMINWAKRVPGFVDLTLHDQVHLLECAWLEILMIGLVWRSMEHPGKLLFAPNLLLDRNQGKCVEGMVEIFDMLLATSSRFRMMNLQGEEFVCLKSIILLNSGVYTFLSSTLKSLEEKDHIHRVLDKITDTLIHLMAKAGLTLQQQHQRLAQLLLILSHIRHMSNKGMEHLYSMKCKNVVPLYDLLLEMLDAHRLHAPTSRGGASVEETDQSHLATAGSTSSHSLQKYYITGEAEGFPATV

Cysteine protease ATG4B = target: T5, Cysteine protease ATG4B (Homo sapiens, UniProt Q9Y4P1); format: functional;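 further: Fluorescence-based dose-response confirmation assay measuring inhibition of ATG4B activity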
T5 sequence (Q9Y4P1 whole entry): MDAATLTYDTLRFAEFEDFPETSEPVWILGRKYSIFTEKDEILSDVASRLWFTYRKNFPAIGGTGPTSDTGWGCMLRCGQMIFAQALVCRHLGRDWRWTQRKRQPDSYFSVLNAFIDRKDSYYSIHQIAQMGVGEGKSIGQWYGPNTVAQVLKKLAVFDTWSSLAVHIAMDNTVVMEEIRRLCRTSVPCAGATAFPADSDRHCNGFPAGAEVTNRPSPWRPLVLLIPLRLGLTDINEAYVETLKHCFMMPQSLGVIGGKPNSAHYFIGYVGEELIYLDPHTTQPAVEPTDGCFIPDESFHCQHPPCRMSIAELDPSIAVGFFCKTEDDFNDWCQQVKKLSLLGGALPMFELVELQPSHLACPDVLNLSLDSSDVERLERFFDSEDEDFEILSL

Phospholipase A2 = Phospholipase A2 (Homo sapiens, UniProt P04054); format: functional;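 further: confirmatory dose-response counterscreen on phospholipase A2, testing hits that came from an ultra-high-throughput screen for ATG4B inhibitors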
[11] = HEK293T cytotoxicity, dose response, cytotoxicity control for miR-122 modulator project, cell-based, inhibitor set, cherry-pick, set 2 (AID 720697); format: functional
cells = format: functional
Nonstructural protein 1 = Nonstructural protein 1 (Influenza A virus, UniProt Q194T2); format: functional, Influenza A virus (A/California/07/2009(H1N1))
HT-1080 = test: cytotoxicity in HT1080 fibrosarcoma cells, cell-based, fluorescence readout (AID 620); format: functional; conditions: Homo sapiens
Melanocortin receptor 4 = Melanocortin receptor 4 (Homo sapiens, UniProt P32245); format: functional, cell-based;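 further: Cell-based assay with luminescence read-out, confirmatory dose-response testing for agonist activity of biased ligands at MC4R; human U2OS cells with tagged receptor and beta-arrestin; potency of agonists that increase receptor coupling to beta-arrestin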
BJ [12] = test: cytotoxicity toward BJ-TERT fibroblasts, dose response, cell-based, RAS-independent, luminescence (AID 1933); format: functional; conditions: Homo sapiens
BJ [13] = test: cells; format: functional, cell-based; conditions: Homo sapiens
BJ [14] = test: cytotoxicity toward BJ-TERT-LT-ST fibroblasts, dose response, cell-based, RAS-independent, luminescence (AID 1935); format: functional; conditions: Homo sapiens;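 further: BJ fibroblasts immortalized with TERT plus LT and ST oncogenes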
[15] = cytotoxicity toward DRD oncogenic fibroblasts, dose response, cell-based, non-viral oncogenic, luminescence (AID 1934); format: functional; conditions: Homo sapiens
BJ [16] = test: cytotoxicity toward Ras-transformed BJeLR fibroblasts, dose response, cell-based, alamar blue fluorescence, cherrypicked samples (AID 2631); format: functional; conditions: Homo sapiens;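 further: confirmatory dose-response assay in RAS-dependent BJ fibroblasts engineered with TERT, LT and ST, with cytotoxicity read by fluorescence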
INS1 = test: beta cell apoptosis inhibitors, cytokine rescue, dose response, luminescence, retest (AID 449756); format: functional, cell-based; conditions: Rattus norvegicus;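 further: cell death triggered by IL-1 beta plus TNF-alpha plus IFN-gamma mixture; protective hits raise ATP signal compared with cytokine alone wells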
Fatty acid synthase [17] = target: T6, Fatty acid synthase (Homo sapiens, UniProt P49327); test: FAS thioesterase domain inhibitors, dose response, biochemical, endpoint fluorescence intensity, uHTS hits (AID 624327); format: functional;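 further: fluorescence from hydrolysis of an O-methyl fluorescein acyl ester substrate by the enzyme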
Fatty acid synthase [18] = target: T6, Fatty acid synthase; test: FAS thioesterase domain inhibitors, dose response, biochemical, kinetic fluorescence intensity (AID 624326); format: functional;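 further: rate of fluorescence rise from hydrolysis of a fluorogenic O-methyl fluorescein ester substrate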
Estrogen receptor beta [19] = target: T7, Estrogen receptor beta (Homo sapiens, UniProt Q92731);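 further: recombinant ER-beta bound to coactivator SRC1 peptide in presence of estradiol agonist; inhibitors block coactivator peptide binding and lower the FRET signal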
Estrogen receptor beta [20] = target: T7, Estrogen receptor beta; test: ERβ–SRC-3 coactivator interaction inhibitors, confirmation, orthogonal assay, biochemical, ELISA, streptavidin-HRP readout (AID 1060)
[21] = target: T8, Polyadenylate-binding protein 1 (Homo sapiens, UniProt P11940); test: PABP1 MLLE–PAM2 interaction inhibitors, dose response, miRNA deadenylation inhibitor project, biochemical, fluorescence polarization, Cy5-PAM2 peptide, secondary (AID 602260); format: functional; conditions: read-out: IC50_Mean
[22] = target: T8, Polyadenylate-binding protein 1; test: PABP1 MLLE–PAM2 binding inhibitor potency, dose response, biochemical, fluorescence polarization, FITC-PAM2 peptide (AID 602259); format: functional; conditions: read-out: IC50_Mean

Phospholipase A2, sequence (P04054 whole entry): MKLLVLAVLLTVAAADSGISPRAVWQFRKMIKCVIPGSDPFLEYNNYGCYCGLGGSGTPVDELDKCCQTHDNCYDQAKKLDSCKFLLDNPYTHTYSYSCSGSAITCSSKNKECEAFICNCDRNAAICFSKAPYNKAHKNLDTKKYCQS
Beta-galactosidase, sequence (Q8VNN2 whole entry): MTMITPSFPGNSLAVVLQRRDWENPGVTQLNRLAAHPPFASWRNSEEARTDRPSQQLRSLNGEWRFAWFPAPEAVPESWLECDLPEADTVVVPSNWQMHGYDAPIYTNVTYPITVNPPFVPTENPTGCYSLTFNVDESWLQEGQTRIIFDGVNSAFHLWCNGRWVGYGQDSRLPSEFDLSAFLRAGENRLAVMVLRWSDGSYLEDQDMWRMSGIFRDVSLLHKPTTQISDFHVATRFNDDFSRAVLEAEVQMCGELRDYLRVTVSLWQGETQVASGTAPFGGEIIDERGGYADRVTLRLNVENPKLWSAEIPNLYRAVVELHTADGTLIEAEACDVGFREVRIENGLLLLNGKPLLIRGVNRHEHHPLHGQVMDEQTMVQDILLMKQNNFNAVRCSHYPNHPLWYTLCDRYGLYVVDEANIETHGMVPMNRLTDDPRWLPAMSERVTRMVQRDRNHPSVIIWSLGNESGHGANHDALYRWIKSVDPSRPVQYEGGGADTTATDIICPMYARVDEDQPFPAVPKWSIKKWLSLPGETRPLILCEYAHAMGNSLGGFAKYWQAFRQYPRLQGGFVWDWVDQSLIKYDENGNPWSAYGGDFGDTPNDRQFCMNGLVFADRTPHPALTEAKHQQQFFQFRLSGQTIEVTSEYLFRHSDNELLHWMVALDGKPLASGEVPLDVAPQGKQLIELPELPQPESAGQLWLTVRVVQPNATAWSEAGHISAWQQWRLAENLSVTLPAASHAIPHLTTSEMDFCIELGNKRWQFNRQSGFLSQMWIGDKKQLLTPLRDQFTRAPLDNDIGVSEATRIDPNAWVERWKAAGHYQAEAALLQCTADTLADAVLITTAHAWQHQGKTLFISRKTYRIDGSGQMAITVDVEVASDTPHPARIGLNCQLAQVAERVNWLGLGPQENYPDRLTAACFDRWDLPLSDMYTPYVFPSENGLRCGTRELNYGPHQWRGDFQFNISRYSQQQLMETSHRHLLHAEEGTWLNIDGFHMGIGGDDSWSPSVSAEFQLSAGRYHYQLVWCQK
T8 sequence (P11940 whole entry): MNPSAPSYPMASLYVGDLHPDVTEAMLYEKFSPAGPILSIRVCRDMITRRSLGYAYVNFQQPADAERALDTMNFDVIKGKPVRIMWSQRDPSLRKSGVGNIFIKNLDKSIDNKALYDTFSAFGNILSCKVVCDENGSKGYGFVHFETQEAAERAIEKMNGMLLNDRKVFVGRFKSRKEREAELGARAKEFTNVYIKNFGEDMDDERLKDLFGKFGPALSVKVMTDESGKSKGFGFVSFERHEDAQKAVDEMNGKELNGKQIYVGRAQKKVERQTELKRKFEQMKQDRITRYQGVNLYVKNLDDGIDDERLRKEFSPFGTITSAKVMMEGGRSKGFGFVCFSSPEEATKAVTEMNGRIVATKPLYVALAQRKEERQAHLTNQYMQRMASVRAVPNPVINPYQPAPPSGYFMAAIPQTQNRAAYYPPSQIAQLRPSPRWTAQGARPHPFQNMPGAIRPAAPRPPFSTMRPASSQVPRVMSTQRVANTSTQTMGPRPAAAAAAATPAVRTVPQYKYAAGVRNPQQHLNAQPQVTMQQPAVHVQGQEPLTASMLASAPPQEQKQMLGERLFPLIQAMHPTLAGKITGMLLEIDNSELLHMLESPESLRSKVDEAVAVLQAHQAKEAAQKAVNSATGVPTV
T7 sequence (Q92731 whole entry): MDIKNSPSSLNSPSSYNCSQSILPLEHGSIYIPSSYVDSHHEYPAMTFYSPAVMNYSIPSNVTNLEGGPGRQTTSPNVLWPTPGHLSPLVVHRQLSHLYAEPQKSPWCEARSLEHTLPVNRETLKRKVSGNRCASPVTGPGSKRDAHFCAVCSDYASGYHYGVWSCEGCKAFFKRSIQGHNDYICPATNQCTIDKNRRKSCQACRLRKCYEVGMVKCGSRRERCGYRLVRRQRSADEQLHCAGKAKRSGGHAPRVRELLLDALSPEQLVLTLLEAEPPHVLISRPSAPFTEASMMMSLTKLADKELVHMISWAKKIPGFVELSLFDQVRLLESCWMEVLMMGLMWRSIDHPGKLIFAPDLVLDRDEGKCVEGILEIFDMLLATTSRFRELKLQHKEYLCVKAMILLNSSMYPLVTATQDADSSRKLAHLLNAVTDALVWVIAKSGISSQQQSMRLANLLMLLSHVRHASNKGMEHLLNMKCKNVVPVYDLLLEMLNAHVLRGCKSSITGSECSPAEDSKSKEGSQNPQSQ
T6 sequence (P49327 whole entry, the tested form may be a part): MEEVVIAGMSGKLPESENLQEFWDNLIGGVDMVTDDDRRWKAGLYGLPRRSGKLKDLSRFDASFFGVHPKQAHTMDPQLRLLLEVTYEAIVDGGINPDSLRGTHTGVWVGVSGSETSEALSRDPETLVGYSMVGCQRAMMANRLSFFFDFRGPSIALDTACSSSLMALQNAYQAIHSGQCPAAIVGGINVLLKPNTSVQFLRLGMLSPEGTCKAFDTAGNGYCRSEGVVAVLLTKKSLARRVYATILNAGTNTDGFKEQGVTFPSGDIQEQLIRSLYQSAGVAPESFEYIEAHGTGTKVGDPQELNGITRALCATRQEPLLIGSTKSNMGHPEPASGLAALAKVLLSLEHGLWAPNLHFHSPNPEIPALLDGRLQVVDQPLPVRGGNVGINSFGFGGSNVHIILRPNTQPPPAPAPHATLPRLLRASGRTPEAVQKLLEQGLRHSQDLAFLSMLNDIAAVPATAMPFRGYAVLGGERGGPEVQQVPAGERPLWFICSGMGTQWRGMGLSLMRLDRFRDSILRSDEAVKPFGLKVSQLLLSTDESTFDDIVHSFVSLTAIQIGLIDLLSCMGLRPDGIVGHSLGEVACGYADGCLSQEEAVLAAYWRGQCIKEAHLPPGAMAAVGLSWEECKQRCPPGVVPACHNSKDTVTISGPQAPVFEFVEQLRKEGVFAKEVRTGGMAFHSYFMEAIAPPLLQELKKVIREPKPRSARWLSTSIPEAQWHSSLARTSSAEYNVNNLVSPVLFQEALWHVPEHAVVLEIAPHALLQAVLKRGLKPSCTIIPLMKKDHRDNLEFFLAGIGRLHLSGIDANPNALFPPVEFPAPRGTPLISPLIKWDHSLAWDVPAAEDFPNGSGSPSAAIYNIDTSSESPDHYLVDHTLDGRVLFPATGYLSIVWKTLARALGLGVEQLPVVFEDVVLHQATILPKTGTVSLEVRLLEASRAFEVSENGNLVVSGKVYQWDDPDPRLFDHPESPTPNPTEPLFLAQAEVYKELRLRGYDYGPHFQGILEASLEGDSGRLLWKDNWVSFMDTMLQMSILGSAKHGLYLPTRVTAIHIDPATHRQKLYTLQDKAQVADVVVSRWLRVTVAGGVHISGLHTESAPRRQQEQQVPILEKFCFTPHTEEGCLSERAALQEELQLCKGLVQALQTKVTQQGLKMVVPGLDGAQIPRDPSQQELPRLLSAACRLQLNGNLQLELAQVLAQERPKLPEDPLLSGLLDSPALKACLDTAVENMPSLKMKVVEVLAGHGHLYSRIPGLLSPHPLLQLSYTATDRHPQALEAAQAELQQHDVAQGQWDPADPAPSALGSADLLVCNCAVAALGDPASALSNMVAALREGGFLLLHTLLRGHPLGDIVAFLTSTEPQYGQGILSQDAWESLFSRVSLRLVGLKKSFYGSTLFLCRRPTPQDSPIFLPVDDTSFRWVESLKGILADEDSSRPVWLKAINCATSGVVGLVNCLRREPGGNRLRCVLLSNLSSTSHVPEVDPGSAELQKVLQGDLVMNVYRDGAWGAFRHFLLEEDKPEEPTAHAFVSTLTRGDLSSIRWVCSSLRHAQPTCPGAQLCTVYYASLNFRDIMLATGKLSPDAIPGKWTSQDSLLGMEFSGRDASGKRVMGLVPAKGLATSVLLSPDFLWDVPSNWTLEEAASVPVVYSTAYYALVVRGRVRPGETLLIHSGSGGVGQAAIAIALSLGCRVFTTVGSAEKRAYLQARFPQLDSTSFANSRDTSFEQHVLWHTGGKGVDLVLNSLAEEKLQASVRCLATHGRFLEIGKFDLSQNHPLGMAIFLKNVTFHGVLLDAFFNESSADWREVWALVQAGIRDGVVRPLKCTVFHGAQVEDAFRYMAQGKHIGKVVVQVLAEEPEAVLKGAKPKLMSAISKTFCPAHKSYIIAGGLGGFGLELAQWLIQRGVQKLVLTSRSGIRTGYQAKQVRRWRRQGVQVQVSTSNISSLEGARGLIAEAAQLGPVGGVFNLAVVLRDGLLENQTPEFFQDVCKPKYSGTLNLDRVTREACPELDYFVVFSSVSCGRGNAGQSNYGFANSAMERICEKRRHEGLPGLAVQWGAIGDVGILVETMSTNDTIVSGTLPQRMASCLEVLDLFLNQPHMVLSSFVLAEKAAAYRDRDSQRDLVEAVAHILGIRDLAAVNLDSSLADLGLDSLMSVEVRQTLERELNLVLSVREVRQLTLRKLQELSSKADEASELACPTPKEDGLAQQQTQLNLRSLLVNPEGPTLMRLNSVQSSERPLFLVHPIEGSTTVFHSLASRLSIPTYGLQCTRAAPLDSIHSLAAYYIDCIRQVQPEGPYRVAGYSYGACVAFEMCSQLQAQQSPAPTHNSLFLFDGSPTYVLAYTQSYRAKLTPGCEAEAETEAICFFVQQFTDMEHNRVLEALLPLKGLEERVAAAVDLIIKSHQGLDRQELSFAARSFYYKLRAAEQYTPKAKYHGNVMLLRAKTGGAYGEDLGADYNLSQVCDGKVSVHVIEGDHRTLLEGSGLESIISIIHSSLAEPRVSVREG
Nonstructural protein 1, sequence (Q194T2 whole entry): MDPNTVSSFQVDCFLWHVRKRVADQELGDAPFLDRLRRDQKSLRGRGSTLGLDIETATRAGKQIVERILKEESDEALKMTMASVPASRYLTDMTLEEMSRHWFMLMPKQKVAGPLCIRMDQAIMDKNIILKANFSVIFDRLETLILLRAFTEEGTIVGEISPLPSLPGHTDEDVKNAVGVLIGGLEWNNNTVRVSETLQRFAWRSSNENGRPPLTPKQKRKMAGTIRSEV

Cc1cc(C)nc(NC(=O)CSc2nn(-c3ccccc3)c(=S)s2)n1
IC50 (HEK293): > 67.5 µM (inactive)
IC50 [1]: > 67.5 µM (inactive)

Cc1ccc(S(=O)(=O)N2CCN(C(=O)/C=C/c3ccccc3)CC2)cc1C
IC50 (Beta-galactosidase): > 80 µM (inactive)

O=C(O)CC(CC(=O)Nc1ccc(F)c(Cl)c1)c1ccc(Cl)cc1Cl (stereo not drawn)
IC50 (HEK293): > 67.5 µM (inactive)
IC50 [1]: > 67.5 µM (inactive)

COc1cc(N=Nc2ccc3ccccc3c2)ccc1O
CC50 [2]: 23.3 µM (active)
AC50 [3]: 2.65 µM (active)
AC50 [4]: 10.7 µM (active)
IC50 (HEK293): > 67.6 µM (inactive)
IC50 [1]: > 67.6 µM (inactive)

COc1ccccc1N(C(=O)c1ccncc1)c1nc(-c2ccc([N+](=O)[O-])cc2)cs1
CC50 [2]: 29.6 µM (active)
EC50 [5]: 0.448 µM (active)
EC50 [6]: > 60 µM (inconclusive)
IC50 (Beta-galactosidase): > 80 µM (inactive)

CNC(=O)C[C@@H]1CC[C@@H]2[C@H](COc3ccc(NC(=O)Nc4cccc(C)c4)cc3C(=O)N2C)O1
AC50 [7]: 24.9 µM (active)

COc1ccc2cnn(-c3ccccc3)c(=O)c2c1OC
Ki (fMet-Leu-Phe receptor): > 66.7 µM (inactive)

Cc1cc(C)c2c(=O)n3c(nc2c1)C(Cc1ccccc1)NC(=O)c1cc2ccccc2cc1-3 (stereo not drawn)
IC50 (Beta-galactosidase): > 80 µM (inactive)

O=C(NCc1ccc2c(c1)OCO2)c1c(O)nc2sccn2c1=O
CC50 [8]: > 40 µM (active)
IC50 [9]: 80 µM (inactive)

CC(=O)Nc1cccc(C(=O)OCC(=O)Nc2nnc(-c3ccccc3)o2)c1
AC50 [10]: 96.8 µM (active)

O=C(NCc1ccco1)c1cc2ccccc2c(=O)o1
IC50 (Estrogen receptor): 30.2 µM (not active)

O=C(COC(=O)c1cccc(O)c1)Nc1nnc(-c2ccccc2)o1
AC50 [10]: 74.4 µM (active)

COc1cccc(/C=N/NC(=O)c2cccs2)c1
IC50 (HEK293): > 67.5 µM (inactive)
IC50 [1]: > 67.5 µM (inactive)

O=C(O)/C=C/c1ccccc1Oc1ccc(Cl)cc1Cl
IC50 (Cysteine protease ATG4B): 11.5 µM (active)
IC50 (Phospholipase A2): 62.7 µM (inactive)

CCCc1ccc(S(=O)(=O)NCCc2ccncc2)cc1
AC50 [7]: 34.1 µM (active)
AC50 [11]: 8.02 µM (active)

Clc1ccc(-c2ccc(CNCc3ccccn3)o2)cc1
IC50 (cells): 3.21 µM (active)
AC50 [10]: 95.9 µM (active)

O=C(CSc1nnc(-c2cccnc2)o1)Nc1nccs1
IC50 (Nonstructural protein 1): 10.9 µM (active)
AC50 [10]: 129 µM (active)

Clc1ccc(OCCn2ccnc2)c(Cl)c1
IC50 (HEK293): > 67.5 µM (inactive)
IC50 [1]: > 67.5 µM (inactive)

CC(C)(C)c1ccc(OCC(O)CSc2nc[nH]n2)cc1 (stereo not drawn)
EC50 (HT-1080): > 50 µM (not active)

Cc1cc(C(=O)N2CCCC(C(=O)c3ccc(Oc4ccccc4)cc3)C2)[nH]n1 (stereo not drawn)
IC50 (Cysteine protease ATG4B): 28.3 µM (inactive)
IC50 (Phospholipase A2): 11.9 µM (active)

O=C(/C=C/c1ccccc1)N1CCC(Cc2ccccc2)CC1
IC50 (Beta-galactosidase): > 80 µM (inactive)

COc1ccc2c(c1)C(c1ccc(C)o1)=NNC(c1ccccc1)=N2
IC50 (Cysteine protease ATG4B): 12.9 µM (active)
IC50 (Phospholipase A2): 8.91 µM (active)

COc1ccc(C(NC(=O)C2CCN(CCOc3ccc(Cl)cc3Cl)CC2)c2cccs2)cc1 (stereo not drawn)
EC50 (Melanocortin receptor 4): > 89.2 µM (inactive)

COc1ccccc1/C=C1\SC(=O)N(CCC(=O)NCCCn2ccnc2)C1=O
EC50 (BJ [12]): > 150 µM (not active)
EC50 (BJ [13]): > 150 µM (inconclusive)
EC50 (BJ [14]): > 150 µM (not active)
EC50 [15]: > 150 µM (not active)
AC50 [3]: 13.5 µM (active)
EC50 (BJ [16]): > 133 µM (inactive)
AC50 (INS1): 5.64 µM (active)

O=S(=O)(c1ccccc1)c1nnn2c1nc(NC1CCN(Cc3ccccc3)CC1)c1ccccc12
IC50 (Fatty acid synthase [17]): 1.03 µM (active)
IC50 [9]: 11.5 µM (active)
IC50 (Fatty acid synthase [18]): 0.793 µM (active)

CC(C)(C)OC(=O)[C@H](Cc1ccccc1)NC(=O)c1ncn2c1c(O)nc1ccc(Br)cc12
IC50 [9]: 5.17 µM (active)

COc1cc2c3c(c1)/C(=C1/SC(NC(C)=O)=NC1=O)C(=O)N3C(C)(C)C=C2C
IC50 (Estrogen receptor beta [19]): 3.37 µM (active)
IC50 (Estrogen receptor beta [20]): 96.2 µM (not active)
IC50 [21]: > 66 µM (inactive)
IC50 [22]: > 66 µM (inactive)
Ki (fMet-Leu-Phe receptor): > 66.7 µM (inactive)

CC1CCN(c2nc(-c3ccccc3)c(C#N)c(=O)[nH]2)CC1
Ki (fMet-Leu-Phe receptor): > 66.7 µM (inactive)

Reference: ChEMBL document CHEMBL1201862, “PubChem BioAssay data set” (2004)
